Patent US8158621B2, “Methods of treating or preventing autoimmune diseases with 2,4-pyrimidinediamine compounds” (Rigel Pharmaceuticals, Inc., priority 2002, dated 2012)
pIC50: −log10 of the molar value. Like-named read-outs stand apart in the source and are kept apart here.

Tested on: Human Jurkat T-cells (clone N)
Assay: Jurkat T-cell activation (anti-TCR, CD69 upregulation)
Format: cell-based
Outline: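 Readout is CD69 upregulation by flow cytometry (anti-CD69-APC, 20 min at 4 °C) after 20 h anti-TCR (C305, 500 ng/ml) stimulation at 37 °C.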

Row | Structure (SMILES) | pIC50 (Homo sapiens, Jurkat) | pIC50
1 | CC(C)Oc1ccc(Nc2ncc(F)c(Nc3ccc(C(C)(C)CO)cc3)n2)cc1 [Compound R935168] | 5.43 | –
2 | CCOC(=O)C(C)(C)c1ccc(Nc2nc(Nc3cccc(O)c3)ncc2F)cc1 [Compound R935169] | – | 5.12
3 | OCCOc1cccc(Nc2nc(Nc3cccc(O)c3)ncc2F)c1 [Compound R935170] | 5.22 | –
4 | CC(C)(CO)c1ccc(Nc2ncc(F)c(Nc3cccc(O)c3)n2)cc1 [Compound R935171] | – | 5.41
5 | CCOC(=O)C(C)(C)c1ccc(Nc2nc(Nc3ccc4c(c3)OCCO4)ncc2F)cc1 [Compound R935172] | < 5.00 | –
6 | CC(C)(CO)c1ccc(Nc2nc(Nc3ccc4c(c3)OCCO4)ncc2F)cc1 [Compound R935173] | – | 5.41
7 | OCCOc1ccc(Nc2ncc(F)c(Nc3ccc4oc(CO)cc4c3)n2)cc1 [Compound R935174] | 5.40 | –
8 | CC(C)Oc1ccc(Nc2nc(Nc3ccc(OCC(O)CO)cc3)ncc2F)cc1 (stereo not shown) [Compound R935175] | 5.76 | –
9 | OCCOc1cccc(Nc2nc(Nc3ccc4c(c3)OCCO4)ncc2F)c1 [Compound R935176] | 5.70 | –
10 | CC(C)(CO)c1ccc(Nc2ncc(F)c(Nc3ccc4oc(CO)cc4c3)n2)cc1 [Compound R935177] | – | 5.38
11 | OCCOc1cccc(Nc2ncc(F)c(Nc3ccc4oc(CO)cc4c3)n2)c1 [Compound R935178] | 5.52 | –
12 | OCC(O)COc1ccc(Nc2ncc(F)c(Nc3ccc4c(c3)OCCO4)n2)cc1 (stereo not shown) [Compound R935179] | – | 5.52
13 | OCC(O)COc1ccc(Nc2ncc(F)c(Nc3cccc(O)c3)n2)cc1 (stereo not shown) [Compound R935180] | 5.45 | –
14 | COC(=O)COc1ccc(Nc2ncc(F)c(Nc3ccc4c(c3)OCCCO4)n2)cc1 [Compound R935182] | – | 4.62
15 | OCCOc1ccc(Nc2ncc(F)c(Nc3ccc4c(c3)OCCCO4)n2)cc1 [Compound R935183] | – | 5.64
16 | CNC(=O)COc1ccc(Nc2ncc(F)c(Nc3ccc4c(c3)OCCCO4)n2)cc1 [Compound R935184] | – | 5.39
17 | COC(=O)COc1cccc(Nc2ncc(F)c(Nc3ccc4c(c3)OCCCO4)n2)c1 [Compound R935185] | – | 5.39
18 | CCOC(=O)C(C)(Oc1cccc(Nc2nc(Nc3ccc(OC(C)C)cc3)ncc2F)c1)C(=O)OCC [Compound R935187] | – | < 5.00
19 | Fc1cnc(Nc2ccc3cn[nH]c3c2)nc1Nc1ccc2cn[nH]c2c1 [Compound R935188] | – | 5.74
20 | Fc1cnc(Nc2ccc3cn[nH]c3c2)nc1Nc1ccc2c(c1)OCCO2 [Compound R935190] | – | 5.46
21 | Oc1cccc(Nc2nc(Nc3ccc4cn[nH]c4c3)ncc2F)c1 [Compound R935191] | – | 5.53
22 | Cn1ncc2cc(Nc3ncc(F)c(Nc4ccc5c(cnn5C)c4)n3)ccc21 [Compound R935192] | – | 5.27
23 | Cn1ncc2cc(Nc3ncc(F)c(Nc4cccc(O)c4)n3)ccc21 [Compound R935194] | – | 6.14
24 | CNC(=O)C(C)(Oc1cccc(Nc2ncc(F)c(Nc3ccc(OC(C)C)cc3)n2)c1)C(=O)NC [Compound R935196] | – | 5.96
25 | CC(C)Oc1ccc(Nc2nc(Nc3ccc4[nH]ncc4c3)ncc2F)cc1 [Compound R935197] | – | 5.61
26 | Fc1cnc(Nc2ccc3[nH]ncc3c2)nc1Nc1ccc2c(c1)OCCO2 [Compound R935198] | – | 5.84
27 | Oc1cccc(Nc2nc(Nc3ccc4[nH]ncc4c3)ncc2F)c1 [Compound R935199] | – | 5.60

Row | Structure (SMILES) | pIC50 (Homo sapiens, Jurkat) | pIC50
28 | CC(C)Oc1ccc(Nc2ncc(F)c(Nc3ccc4c(cnn4C)c3)n2)cc1 [Compound R935203] | – | < 5.00
29 | Cn1ncc2cc(Nc3nc(Nc4cccc(O)c4)ncc3F)ccc21 [Compound R935204] | – | 5.41
30 | COC(=O)Cn1ncc2ccc(Nc3ncc(F)c(Nc4ccc5cnn(CC(=O)OC)c5c4)n3)cc21 [Compound R935205] | – | 4.97
31 | CNC(=O)Cn1ncc2ccc(Nc3ncc(F)c(Nc4ccc5cnn(CC(=O)NC)c5c4)n3)cc21 [Compound R935206] | – | < 5.00
32 | COC(=O)c1cc(COc2cccc(Nc3ncc(F)c(Nc4ccc5c(c4)OCCO5)n3)c2)co1 [Compound R935207] | – | < 5.00
33 | COC(=O)Cn1ncc2ccc(Nc3ncc(F)c(Nc4ccc5c(c4)OCCO5)n3)cc21 [Compound R935208] | – | 5.54
34 | COC(=O)COc1ccc(Nc2ncc(F)c(Nc3ccc4c(cnn4C)c3)n2)cc1 [Compound R935209] | – | < 5.00
35 | COC(=O)Cn1ncc2cc(Nc3ncc(F)c(Nc4ccc5c(cnn5CC(=O)OC)c4)n3)ccc21 [Compound R935211] | – | 5.15
36 | CNC(=O)Cn1ncc2ccc(Nc3ncc(F)c(Nc4ccc5c(c4)OCCO5)n3)cc21 [Compound R935212] | – | 5.33
37 | CNC(=O)c1cc(COc2cccc(Nc3ncc(F)c(Nc4ccc5c(c4)OCCO5)n3)c2)co1 [Compound R935213] | – | 5.51
38 | COc1cc(Nc2ncc(F)c(Nc3ccc4c(cnn4C)c3)n2)cc(OC)c1 [Compound R935214] | – | 5.86
39 | COC(=O)Cn1ncc2ccc(Nc3ncc(F)c(Nc4cccc(O)c4)n3)cc21 [Compound R935215] | – | 5.10
40 | CNC(=O)COc1ccc(Nc2ncc(F)c(Nc3ccc4c(cnn4C)c3)n2)cc1 [Compound R935216] | – | 5.46
41 | CNC(=O)Cn1ncc2cc(Nc3ncc(F)c(Nc4ccc5c(cnn5CC(=O)NC)c4)n3)ccc21 [Compound R935217] | – | < 5.00
42 | COC(=O)Cn1ncc2ccc(Nc3nc(Nc4ccc(OC(C)C)cc4)ncc3F)cc21 [Compound R935218] | – | 4.64
43 | COC(=O)Cn1ncc2ccc(Nc3nc(Nc4ccc5c(c4)OCCO5)ncc3F)cc21 [Compound R935219] | – | 5.25
44 | COC(=O)Cn1ncc2ccc(Nc3nc(Nc4cccc(O)c4)ncc3F)cc21 [Compound R935220] | – | 5.09
45 | Cn1nc(I)c2cc(Nc3ncc(F)c(Nc4ccc(I)c(O)c4I)n3)ccc21 [Compound R935221] | – | < 5.00
46 | COC(=O)Cn1ncc2cc(Nc3ncc(F)c(Nc4ccc(OC(C)C)cc4)n3)ccc21 [Compound R935222] | – | 5.45
47 | COC(=O)Cn1ncc2cc(Nc3ncc(F)c(Nc4ccc5c(c4)OCCO5)n3)ccc21 [Compound R935223] | – | 5.34
48 | CNC(=O)Cn1ncc2ccc(Nc3nc(Nc4ccc(OC(C)C)cc4)ncc3F)cc21 [Compound R935224] | – | < 5.00
49 | CNC(=O)Cn1ncc2ccc(Nc3nc(Nc4ccc5c(c4)OCCO5)ncc3F)cc21 [Compound R935225] | – | 5.13
50 | COC(=O)Cn1ncc2cc(Nc3ncc(F)c(Nc4cccc(O)c4)n3)ccc21 [Compound R935237] | – | < 5.00
51 | OCCn1ncc2ccc(Nc3ncc(F)c(Nc4ccc5cnn(CCO)c5c4)n3)cc21 [Compound R935238] | – | 5.17
52 | CNC(=O)Cn1ncc2cc(Nc3ncc(F)c(Nc4ccc(OC(C)C)cc4)n3)ccc21 [Compound R935239] | – | 5.76
53 | CNC(=O)Cn1ncc2cc(Nc3ncc(F)c(Nc4ccc5c(c4)OCCO5)n3)ccc21 [Compound R935240] | – | 5.57
54 | COC(=O)Cn1ncc2cc(Nc3nc(Nc4ccc(OC(C)C)cc4)ncc3F)ccc21 [Compound R935242] | – | < 5.00

Row | Structure (SMILES) | pIC50 (Homo sapiens, Jurkat) | pIC50
55 | OCCn1ncc2ccc(Nc3ncc(F)c(Nc4ccc5c(c4)OCCO5)n3)cc21 [Compound R935248] | – | 5.72
56 | COC(=O)Cn1ncc2cc(Nc3nc(Nc4ccc5c(c4)OCCO5)ncc3F)ccc21 [Compound R935249] | – | 5.32
57 | COC(=O)Cn1ncc2cc(Nc3nc(Nc4cccc(O)c4)ncc3F)ccc21 [Compound R935250] | – | 5.21
58 | CC(C)Oc1ccc(Nc2nc(Nc3ccc4c(cnn4CCO)c3)ncc2F)cc1 [Compound R935255] | – | 6.18
59 | OCCn1ncc2cc(Nc3ncc(F)c(Nc4cccc(O)c4)n3)ccc21 [Compound R935256] | – | 6.04
60 | OCCn1ncc2cc(Nc3nc(Nc4ccc5c(c4)OCCO5)ncc3F)ccc21 [Compound R935258] | – | 5.20
61 | OCCn1ncc2cc(Nc3nc(Nc4cccc(O)c4)ncc3F)ccc21 [Compound R935259] | – | 5.46
62 | Fc1cnc(Nc2ccc3c(c2)OCCO3)nc1Nc1ccc2cn[nH]c2c1 [Compound R935261] | – | 5.66
63 | Oc1cccc(Nc2ncc(F)c(Nc3ccc4cn[nH]c4c3)n2)c1 [Compound R935262] | – | 5.51
64 | CC1(Cl)CC(Nc2ncc(F)c(Nc3ccc4c(c3)-n3ccnc3CO4)n2)=CC=C1O (stereo not shown) [Compound R935263] | 5.70 | –
65 | Cc1cc(Nc2ncc(F)c(Nc3ccc4cn[nH]c4c3)n2)cc(Cl)c1O [Compound R935264] | – | 5.85
66 | CC(C)Oc1ccc(Nc2ncc(F)c(Nc3ccc4[nH]ncc4c3)n2)cc1 [Compound R935266] | – | < 5.00
67 | Fc1cnc(Nc2ccc3c(c2)OCCO3)nc1Nc1ccc2[nH]ncc2c1 [Compound R935267] | – | 5.41
68 | Oc1cccc(Nc2ncc(F)c(Nc3ccc4[nH]ncc4c3)n2)c1 [Compound R935268] | – | 5.54
69 | COC(=O)COc1cccc(Nc2ncc(F)c(Nc3ccc4[nH]ncc4c3)n2)c1 [Compound R935269] | – | 5.12
70 | CNC(=O)COc1cccc(Nc2ncc(F)c(Nc3ccc4c(c3)-n3ccnc3CO4)n2)c1 [Compound R935271] | – | 6.07
71 | CNC(=O)COc1cccc(Nc2ncc(F)c(Nc3ccc4[nH]ncc4c3)n2)c1 [Compound R935279] | – | 5.70
72 | CCOC(=O)CCn1ncc2ccc(Nc3ncc(F)c(Nc4ccc5c(c4)OCCO5)n3)cc21 [Compound R935286] | – | 5.60
73 | OCCCn1ncc2ccc(Nc3ncc(F)c(Nc4ccc5c(c4)OCCO5)n3)cc21 [Compound R935287] | – | 5.77
74 | CC(C)Oc1ccc(Nc2nc(Nc3ccc4cnn(CCCO)c4c3)ncc2F)cc1 [Compound R935290] | – | 5.46
75 | CNC(=O)CCn1ncc2ccc(Nc3ncc(F)c(Nc4ccc(OC(C)C)cc4)n3)cc21 [Compound R935291] | – | 5.50
76 | OCCCn1ncc2ccc(Nc3ncc(F)c(Nc4cccc(O)c4)n3)cc21 [Compound R935293] | – | 5.87
77 | CNC(=O)CCn1ncc2ccc(Nc3ncc(F)c(Nc4cccc(O)c4)n3)cc21 [Compound R935294] | – | 5.09
78 | COC(=O)c1cc2cc(Nc3ncc(F)c(Nc4ccc5cnn(CCC(=O)O)c5c4)n3)ccc2o1 [Compound R935296] | – | < 5.00
79 | CNC(=O)CCn1ncc2ccc(Nc3ncc(F)c(Nc4ccc5oc(C(=O)NC)cc5c4)n3)cc21 [Compound R935297] | – | 5.24
